Molecular target: T1, Secreted chorismate mutase (Mycobacterium tuberculosis (strain ATCC 25618 / H37Rv), UniProt P9WIB9)
T1 sequence (P9WIB9 whole entry): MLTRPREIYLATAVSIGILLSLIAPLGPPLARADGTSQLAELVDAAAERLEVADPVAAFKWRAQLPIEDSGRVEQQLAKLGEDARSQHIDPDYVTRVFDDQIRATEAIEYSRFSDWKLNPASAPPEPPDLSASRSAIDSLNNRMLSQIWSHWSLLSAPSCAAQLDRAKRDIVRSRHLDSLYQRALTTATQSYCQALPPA
Test: CM Assay
Settings: 37 °C
Procedure: The reaction was initiated by the addition of 150pmoles of enzyme to a mixture of inhibitor (40µM, 20 µM, 10 µM, 5 µM, 1 µM and 0.5 µM ), 20µM chorismic acid in 50mM Tris-HCl, 0.5mM EDTA, 0.1mg/ml BSA, 10mM β-mercaptoethanol (pH-7.5). The assay mixture was incubated at 37°C for 5 min and the reaction was terminated by the addition of 40µL of 1N HCl and further incubation at 37°C for 1 to 5 min. Phenyl pyruvate formed at the end of reaction is converted to chromophoric base with the addition of 80µL 2.5N NaOH. The absorbance of each sample was read at 320nm. Positive control contained the assay mixture with carvacrol(40µM, 20 µM, 10 µM, 5 µM, 1 µM and 0.5 µM ).

O=C1Nc2ccc(-c3ccccc3)cc2C1=O
IC50: 37.1 µM

O=C1Nc2ccccc2/C1=N/c1ncc([N+](=O)[O-])s1 [(3Z)‐3‐[(5‐nitro‐1,3‐thiazol‐2‐yl)imino]‐1H‐indol‐2‐ one (Compound 13)]
IC50: > 100 µM

CN1C(=O)C(=O)c2ccccc21 [1-methyl-2,3-dihydro-1H-indole-2,3-dione]
IC50: 1.96 µM

C=CCN1C(=O)C(=O)c2ccccc21 [1‐(prop‐2‐en‐1‐yl)indole‐2,3‐dione (Compound 5)]
IC50: 96.6 µM

O=C1Nc2ccc(-c3cccc(Cl)c3Cl)cc2C1=O [5‐(2,3‐dichlorophenyl)‐1H‐indole‐2,3‐dione (Compound 17)]
IC50: 95.7 µM

O=C1Nc2ccccc2/C1=C/c1ccc([N+](=O)[O-])cc1 [3-(4-nitrobenzylidene)indolin-2-one (Compound 24)]
IC50: 1.01 µM

O=C1Nc2ccccc2C1=O [2,3-dihydro-1H-indole-2,3-dione]
IC50: 1.08 µM

O=C1Nc2ccccc2/C1=N/c1nc2ccc([N+](=O)[O-])cc2s1 [(3Z)‐3‐[(6‐nitro‐1,3‐benzothiazol‐2‐yl)imino]‐1H‐ indol‐2‐one (Compound 14)]
IC50: > 100 µM

CC(=O)N1C(=O)C(=NC(=O)NN)c2ccccc21 [1‐[(3Z)‐1‐acetyl‐2‐oxoindol‐3‐ylidene]‐3‐aminourea (Compound 12)]
IC50: 25 µM

O=C1Nc2ccc(N3CCN(C(=O)c4ccco4)CC3)cc2C1=O [5‐[4‐(furan‐2‐carbonyl)piperazin‐1‐yl]‐1H‐indole‐ 2,3‐dione (Compound 23)]
IC50: 28.8 µM

O=C1Nc2ccc(N3CCNCC3)cc2C1=O [5‐(piperazin‐1‐yl)‐1H‐indole‐2,3‐dione (Compound 19)]
IC50: 39.9 µM

CCN1C(=O)C(=O)c2ccccc21 [1‐ethylindole‐2,3‐dione (Compound 3)]
IC50: 22.7 µM

CC(C)N1C(=O)C(=O)c2ccccc21 [1‐isopropylindole‐2,3‐dione (Compound 4)]
IC50: 75.1 µM

CC(=O)n1c(O)c(NC(=S)N=N)c2ccccc21 [1‐[(3Z)‐1‐acetyl‐2‐oxoindol‐3‐ylidene]‐3‐ aminothiourea (Compound 11)]
IC50: 30.5 µM

O=C1C(=O)N(c2ccccc2)c2ccccc21 [1-phenyl-2,3-dihydro-1H-indole-2,3-dione]
IC50: 23.3 µM

O=NC1C(=O)Nc2ccccc21 (stereo not given) [(3Z)‐3‐(hydroxyimino)‐1H‐indol‐2‐one (Compound 15)]
IC50: 98.1 µM

O=C1Nc2ccc(N3CCN(c4cccc(C(F)(F)F)c4)CC3)cc2C1=O [5‐{4‐[3‐(trifluoromethyl)phenyl]piperazin‐1‐yl}‐1H‐ indole‐2,3‐dione (Compound 21)]
IC50: 55.7 µM

O=C1Nc2ccc(N3CCCCC3)cc2C1=O [5‐(piperidin‐1‐yl)‐1H‐indole‐2,3‐dione (Compound 22)]
IC50: 25.6 µM

NNC(=O)/N=C1\C(=O)Nc2ccccc21 [3‐amino‐1‐[(3Z)‐2‐oxo‐1H‐indol‐3‐ylidene]urea (Compound 10)]
IC50: 54.1 µM

NNC(=S)N=C1C(=O)Nc2ccccc21 [3‐amino‐1‐[(3Z)‐2‐oxo‐1H‐indol‐3‐ylidene]thiourea (Compound 9)]
IC50: 66.9 µM

CN1CCN(c2ccc3c(c2)C(=O)C(=O)N3)CC1 [5‐(4‐methylpiperazin‐1‐yl)‐1H‐indole‐2,3‐dione (Compound 20)]
IC50: 31.9 µM

O=C1Nc2ccccc2/C1=C/c1ccc([N+](=O)[O-])s1 [3-((5-nitrothiophen-2-yl)methylene)indolin-2-one (Compound 25)]
IC50: 0.93 µM

CC(C)(C)C(=O)N1C(=O)C(=O)c2ccccc21 [1‐(2,2‐dimethylpropanoyl)indole‐2,3‐dione (Compound 8)]
IC50: 41 µM

CC(=O)N1C(=O)C(=O)c2ccccc21 [Acetylisatin (Compound 7)]
IC50: 0.99 µM

Cc1ccc(C)c(-c2ccc3c(c2)C(=O)C(=O)N3)c1 [5‐(2,5‐dimethylphenyl)‐1H‐indole‐2,3‐dione (Compound 18)]
IC50: 36.5 µM

Reference: BindingDB's records for doi:10.1111/cbdd.12265 (Birla Institute of Technology, 2014)
